Test results: patent US20080234317A1, “METHODS FOR THE IMPROVEMENT OF MEMORY AND NEUROLOGICAL FUNCTION COMPRISING THE ADMINISTRATION OF COMPOSITIONS THAT ACT AS INHIBITORS OF THE SODIUM PROTON (NA+ /H+ ) EXCHANGER, SUBTYPE 5 (NHE-5)” (SANOFI-AVENTIS, priority 2005, published 2008)
Structures can show the parent of a compound that is named as a salt.

Assays:
NHE-5 = molecular target: T1, NHE-5 (Homo sapiens, UniProt Q14940); test: recovery of intracellular pH in LAP1 cells stably expressing NHE subtypes after acidification (BCECF, FLIPR); type: cell-based; conditions: LAP1 cells expressing NHE-5; pH recovery registered for two minutes
T1 construct: expressed in transfected cells
T1 sequence (Q14940 1-896): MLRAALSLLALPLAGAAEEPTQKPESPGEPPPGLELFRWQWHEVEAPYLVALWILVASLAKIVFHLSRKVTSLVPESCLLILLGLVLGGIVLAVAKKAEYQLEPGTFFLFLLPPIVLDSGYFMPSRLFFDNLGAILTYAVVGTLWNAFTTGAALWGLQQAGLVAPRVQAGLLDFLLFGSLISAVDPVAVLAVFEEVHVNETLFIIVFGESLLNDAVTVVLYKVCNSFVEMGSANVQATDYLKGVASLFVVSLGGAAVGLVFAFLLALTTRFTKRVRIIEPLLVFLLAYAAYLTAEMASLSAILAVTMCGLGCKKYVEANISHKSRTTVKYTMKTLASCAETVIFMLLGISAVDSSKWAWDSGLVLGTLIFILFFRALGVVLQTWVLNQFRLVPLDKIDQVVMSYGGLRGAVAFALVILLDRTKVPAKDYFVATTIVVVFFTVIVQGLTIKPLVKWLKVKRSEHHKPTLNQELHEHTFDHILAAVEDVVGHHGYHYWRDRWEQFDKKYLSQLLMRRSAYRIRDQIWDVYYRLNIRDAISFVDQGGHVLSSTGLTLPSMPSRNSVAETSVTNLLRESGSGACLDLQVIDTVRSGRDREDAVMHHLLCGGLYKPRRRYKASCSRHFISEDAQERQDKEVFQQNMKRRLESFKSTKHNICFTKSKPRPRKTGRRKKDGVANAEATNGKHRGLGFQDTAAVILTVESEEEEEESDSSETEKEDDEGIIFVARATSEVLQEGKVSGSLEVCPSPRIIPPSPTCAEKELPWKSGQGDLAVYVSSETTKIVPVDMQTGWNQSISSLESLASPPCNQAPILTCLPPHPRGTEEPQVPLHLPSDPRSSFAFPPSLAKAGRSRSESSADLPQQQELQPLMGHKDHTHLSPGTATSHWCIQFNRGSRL
Description: In order to obtain pharmacological data for NHE-5 inhibition, the recovery in the intracellular pH (pHi) of LAP1 cells, which stably express the different subtypes of the sodium-proton exchanger (NHE), was determined after an acidification. This recovery occurs even under bicarbonate-free conditions in the case of functioning NHE. To this end, the pHi was determined with the pH-sensitive fluorescent dye BCECF (Molecular Probes, Eugene, Oreg., USA; the precursor BCECF-AM is used). […] The pH recovery was started by the addition of 90 μl of Na^+-containing buffer (133.8 mM NaCl, 4.7 mM KCl, 1.25 mM CaCl2, 1.25 mM MgCl2, 0.97 mM Na2HPO4, 0.23 mM NaH2PO4, 10 mM Hepes, 5 mM glucose; a pH of 7.4 is established with 1 M NaOH) in the analytical instrument (FLIPR, “Fluorometric Imaging Plate Reader”, Molecular Devices, Sunnyvale, Calif., USA). The BCECF fluorescence was determined at an excitation wavelength of 498 nm and the FLIPR emission filter 1 (band gap from 510 to 570 nm). The subsequent changes in fluorescence were registered for two minutes at NHE-5 as a measure of the pH recovery. […] From the percentages of the pH recovery, the IC50 value of the particular substance for the individual NHE subtypes was calculated by means of the program XLFit (idbs, Surrey, UK).

[1] = tested on: LTP in the CA 1 region of the hippocampus section; test: early LTP after weak tetanus in hippocampus sections, CA 1 region (fEPSP slope); type: cell-based, Wistar rats; conditions: 10 μM

Row | SMILES | IC50 (NHE-5) | potentiation of the EPSP, % of the baseline ([1]; flushed 20 min before stimulation, washed out 20 min after, 80 min after the stimulus, control 113%) | intrinsic effect on synaptic transmission ([1]; baseline recording before tetanus, rat hippocampus sections) | maintenance of the weak LTP ([1]; weak tetanus, rat hippocampus sections) | melting point
1 | CN1Cc2c(Cl)cc(Cl)cc2C(c2ccc(S(=O)(=O)N=C(N)N)cc2)C1 (centres unmarked) [Example 1, N-Diaminomethylene-4-(6,8-dichloro-2-methyl-1,2,3,4-tetrahydroisoquinolin-4-yl)benzenesulfonamide, dihydrochloride] | 370 nM | under 137 % of the baseline | no intrinsic effect on synaptic transmission | improve maintenance of the weak LTP | 
2 | CN1Cc2c(Cl)cc(Cl)cc2C(c2ccc(S(=O)(=O)N=C(N)N)cc2)C1 (centres unmarked) (as salt: hydrochloride) [Example 1, N-Diaminomethylene-4-(6,8-dichloro-2-methyl-1,2,3,4-tetrahydroisoquinolin-4-yl)benzenesulfonamide, dihydrochloride] |  |  |  |  | 140 °C (dec.)
